# Experimental data reported in patent publication EP4603105A1, “PHARMACEUTICAL COMPOSITION CONTAINING CYCLIC COMPOUND HAVING SELECTIVE KRAS INHIBITORY EFFECT AGAINST HRAS AND NRAS” (CHUGAI SEIYAKU KABUSHIKI KAISHA, priority 2022, dated 2024).
# Where a SMILES comes first, the peptide text is derived from it. Bridges are numbered along the chain shown (N, C = ends). [ ]: non-standard residue; d: D form. The star is where a group is joined. hPhe(3-Cl-4-CF3) = N[C@@H](CCc1ccc(C(F)(F)F)c(Cl)c1)C(=O)O; NPrPhe(4-CF3) = CCCN[C@@H](Cc1ccc(C(F)(F)F)cc1)C(=O)O; NMeGly(cPent) = CN[C@H](C(=O)O)C1CCCC1; Pro(4,4-F2) = O=C(O)[C@@H]1CC(F)(F)CN1; Hyp = O=C(O)[C@@H]1C[C@@H](O)CN1; NMeD = CN[C@@H](CC(=O)O)C(=O)O; NMeL = CN[C@@H](CC(C)C)C(=O)O; Morpholide = C1CN(*)CCO1; NMeA = CN[C@@H](C)C(=O)O; Ac5c = NC1(C(=O)O)CCCC1; Aze = O=C(O)[C@@H]1CCN1; Ac4c = NC1(C(=O)O)CCC1; NEtG = CCNCC(=O)O; Sar = CNCC(=O)O
# Columns and labels:
# [1] = tested on: human lung cancer strain NCI-H441; assay type: cell-based
# Outline: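 Step one: dispense the test compound in serial DMSO dilutions. Step three: add the reagent and measure […].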
# [2] = biological target: GDP-bound NRAS wild-type protein (Homo sapiens, UniProt P01111); experiment: Binding to NRAS by surface plasmon resonance (SPR), KD and KD ratio to KRAS; settings: ratio of the KD value with respect to GDP-bound NRAS wild-type protein to the KD value with respect to KRAS
# Outline: (§1)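 Captured GDP-RAS (~100–300 RU) was exposed to increasing compound concentrations, 75 s per step, in running buffer with 10 µM GDP, 10 mM MgCl2 and 4% DMSO at pH 7.4.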
# HRAS wild-type protein = HRAS wild-type protein (Homo sapiens, UniProt P01112); experiment: Binding to HRAS by surface plasmon resonance (SPR), KD and KD ratio to KRAS; settings: ratio of the KD value with respect to HRAS wild-type protein to the KD value with respect to KRAS
# Outline: as §1
# Chain of GDP-bound NRAS wild-type protein (P01111 whole entry): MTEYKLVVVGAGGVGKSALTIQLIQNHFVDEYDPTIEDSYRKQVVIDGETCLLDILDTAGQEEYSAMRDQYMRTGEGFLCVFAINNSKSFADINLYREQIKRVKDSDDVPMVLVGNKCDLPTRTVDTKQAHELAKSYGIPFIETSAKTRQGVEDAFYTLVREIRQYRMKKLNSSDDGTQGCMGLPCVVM
# Chain of HRAS wild-type protein (P01112 whole entry): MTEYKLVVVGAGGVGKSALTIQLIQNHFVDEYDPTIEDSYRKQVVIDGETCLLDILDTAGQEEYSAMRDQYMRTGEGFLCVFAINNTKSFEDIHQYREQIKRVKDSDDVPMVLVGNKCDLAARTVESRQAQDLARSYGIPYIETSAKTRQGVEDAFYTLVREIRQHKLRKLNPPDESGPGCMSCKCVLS
Compound,IC50 [1] [nM],NRAS /KRAS [2],HRAS /KRAS (HRAS wild-type protein)
"CCCN1C(=O)CN(C)C(=O)CN(CC)C(=O)[C@H]([C@@H](C)CC)NC(=O)[C@H](CC(C)C)N(C)C(=O)C[C@@H](C(=O)N2CCOCC2)N(C)C(=O)[C@H](C2CCCC2)N(C)C(=O)C2(CCC2)NC(=O)[C@@H]2CC(F)(F)CN2C(=O)[C@H](CCc2ccc(C(F)(F)F)c(Cl)c2)NC(=O)CN(C)C(=O)[C@@H]1Cc1ccc(C(F)(F)F)cc1 [PP0400] ([NMeL]I[NEtG][Sar][NPrPhe(4-CF3)][Sar][hPhe(3-Cl-4-CF3)][Pro(4,4-F2)][Ac4c][NMeGly(cPent)][NMeD]-Morpholide; lactam N-11)",7.8,B (a compound having 3 or more and less than 10 is denoted as B),B (a compound having 3 or more and less than 10 is denoted as B)
CCCN1C(=O)CN(C)C(=O)CN(CC)C(=O)[C@H]([C@@H](C)CC)NC(=O)[C@H](CC(C)C)N(C)C(=O)C[C@@H](C(=O)N2CCOCC2)N(C)C(=O)[C@H](C2CCCC2)N(C)C(=O)C2(CCC2)NC(=O)[C@@H]2C[C@@H](OCC)CN2C(=O)[C@H](CCc2ccc(C(F)(F)F)c(Cl)c2)NC(=O)CN(C)C(=O)[C@@H]1Cc1ccc(C(F)(F)F)cc1 [PP0401] ([NMeL]I[NEtG][Sar][NPrPhe(4-CF3)][Sar][hPhe(3-Cl-4-CF3)][Hyp](Et)[Ac4c][NMeGly(cPent)][NMeD]-Morpholide; lactam N-11),5.1,B (a compound having 3 or more and less than 10 is denoted as B),B (a compound having 3 or more and less than 10 is denoted as B)
"CCCN1C(=O)CN(C)C(=O)[C@@H]2CCN2C(=O)[C@H]([C@@H](C)CC)NC(=O)[C@H](CC(C)C)N(C)C(=O)C[C@@H](C(=O)N2CCOCC2)N(C)C(=O)[C@H](C2CCCC2)N(C)C(=O)C2(CCCC2)NC(=O)[C@@H]2CC(F)(F)CN2C(=O)[C@H](CCc2ccc(C(F)(F)F)c(Cl)c2)NC(=O)CN(C)C(=O)[C@@H]1Cc1ccc(C(F)(F)F)cc1 [PP0403] ([NMeL]I[Aze][Sar][NPrPhe(4-CF3)][Sar][hPhe(3-Cl-4-CF3)][Pro(4,4-F2)][Ac5c][NMeGly(cPent)][NMeD]-Morpholide; lactam N-11)",19.4,B (a compound having 3 or more and less than 10 is denoted as B),B (a compound having 3 or more and less than 10 is denoted as B)
CCCN1C(=O)CN(C)C(=O)[C@@H]2CCN2C(=O)[C@H]([C@@H](C)CC)NC(=O)[C@H](CC(C)C)N(C)C(=O)C[C@@H](C(=O)N2CCOCC2)N(C)C(=O)[C@H](C2CCCC2)N(C)C(=O)C2(CCC2)NC(=O)[C@@H]2C[C@@H](OCC)CN2C(=O)[C@H](CCc2ccc(C(F)(F)F)c(Cl)c2)NC(=O)CN(C)C(=O)[C@@H]1Cc1ccc(C(F)(F)F)cc1 [PP0405] ([NMeL]I[Aze][Sar][NPrPhe(4-CF3)][Sar][hPhe(3-Cl-4-CF3)][Hyp](Et)[Ac4c][NMeGly(cPent)][NMeD]-Morpholide; lactam N-11),14.3,B (a compound having 3 or more and less than 10 is denoted as B),C (A compound having a KD ratio of 0.1 or more and less than 3 is denoted as C)
CCCN1C(=O)[C@@H]2CCN2C(=O)[C@H](C)N(C)C(=O)[C@H]([C@@H](C)CC)NC(=O)[C@H](CC(C)C)N(C)C(=O)C[C@@H](C(=O)N2CCOCC2)N(C)C(=O)[C@H](C2CCCC2)N(C)C(=O)C2(CCC2)NC(=O)[C@@H]2C[C@@H](OCC)CN2C(=O)[C@H](CCc2ccc(C(F)(F)F)c(Cl)c2)NC(=O)CN(C)C(=O)[C@@H]1Cc1ccc(C(F)(F)F)cc1 [PP0406] ([NMeL]I[NMeA][Aze][NPrPhe(4-CF3)][Sar][hPhe(3-Cl-4-CF3)][Hyp](Et)[Ac4c][NMeGly(cPent)][NMeD]-Morpholide; lactam N-11),2.5,C (A compound having a KD ratio of 0.1 or more and less than 3 is denoted as C),B (a compound having 3 or more and less than 10 is denoted as B)
"CCCN1C(=O)[C@@H]2CCN2C(=O)CN(C)C(=O)[C@H]([C@@H](C)CC)NC(=O)[C@H](CC(C)C)N(C)C(=O)C[C@@H](C(=O)N2CCOCC2)N(C)C(=O)[C@H](C2CCCC2)N(C)C(=O)C2(CCCC2)NC(=O)[C@@H]2CC(F)(F)CN2C(=O)[C@H](CCc2ccc(C(F)(F)F)c(Cl)c2)NC(=O)CN(C)C(=O)[C@@H]1Cc1ccc(C(F)(F)F)cc1 [PP0408] ([NMeL]I[Sar][Aze][NPrPhe(4-CF3)][Sar][hPhe(3-Cl-4-CF3)][Pro(4,4-F2)][Ac5c][NMeGly(cPent)][NMeD]-Morpholide; lactam N-11)",5.7,C (A compound having a KD ratio of 0.1 or more and less than 3 is denoted as C),B (a compound having 3 or more and less than 10 is denoted as B)
"CCCN1C(=O)[C@@H]2CCN2C(=O)CN(C)C(=O)[C@H]([C@@H](C)CC)NC(=O)[C@H](CC(C)C)N(C)C(=O)C[C@@H](C(=O)N2CCOCC2)N(C)C(=O)[C@H](C2CCCC2)N(C)C(=O)C2(CCC2)NC(=O)[C@@H]2CC(F)(F)CN2C(=O)[C@H](CCc2ccc(C(F)(F)F)c(Cl)c2)NC(=O)CN(C)C(=O)[C@@H]1Cc1ccc(C(F)(F)F)cc1 [PP0409] ([NMeL]I[Sar][Aze][NPrPhe(4-CF3)][Sar][hPhe(3-Cl-4-CF3)][Pro(4,4-F2)][Ac4c][NMeGly(cPent)][NMeD]-Morpholide; lactam N-11)",4.4,C (A compound having a KD ratio of 0.1 or more and less than 3 is denoted as C),C (A compound having a KD ratio of 0.1 or more and less than 3 is denoted as C)
CCCN1C(=O)[C@@H]2CCN2C(=O)CN(C)C(=O)[C@H]([C@@H](C)CC)NC(=O)[C@H](CC(C)C)N(C)C(=O)C[C@@H](C(=O)N2CCOCC2)N(C)C(=O)[C@H](C2CCCC2)N(C)C(=O)C2(CCCC2)NC(=O)[C@@H]2C[C@@H](OCC)CN2C(=O)[C@H](CCc2ccc(C(F)(F)F)c(Cl)c2)NC(=O)CN(C)C(=O)[C@@H]1Cc1ccc(C(F)(F)F)cc1 [PP0410] ([NMeL]I[Sar][Aze][NPrPhe(4-CF3)][Sar][hPhe(3-Cl-4-CF3)][Hyp](Et)[Ac5c][NMeGly(cPent)][NMeD]-Morpholide; lactam N-11),1.4,C (A compound having a KD ratio of 0.1 or more and less than 3 is denoted as C),B (a compound having 3 or more and less than 10 is denoted as B)
CCCN1C(=O)[C@@H]2CCN2C(=O)CN(C)C(=O)[C@H]([C@@H](C)CC)NC(=O)[C@H](CC(C)C)N(C)C(=O)C[C@@H](C(=O)N2CCOCC2)N(C)C(=O)[C@H](C2CCCC2)N(C)C(=O)C2(CCC2)NC(=O)[C@@H]2C[C@@H](OCC)CN2C(=O)[C@H](CCc2ccc(C(F)(F)F)c(Cl)c2)NC(=O)CN(C)C(=O)[C@@H]1Cc1ccc(C(F)(F)F)cc1 [PP0411] ([NMeL]I[Sar][Aze][NPrPhe(4-CF3)][Sar][hPhe(3-Cl-4-CF3)][Hyp](Et)[Ac4c][NMeGly(cPent)][NMeD]-Morpholide; lactam N-11),2.8,C (A compound having a KD ratio of 0.1 or more and less than 3 is denoted as C),C (A compound having a KD ratio of 0.1 or more and less than 3 is denoted as C)
CCCN1C(=O)CN(C)C(=O)CN(C)C(=O)[C@H]([C@@H](C)CC)NC(=O)[C@H](CC(C)C)N(C)C(=O)C[C@@H](C(=O)N(C)C)N(C)C(=O)[C@H](C2CCCC2)N(C)C(=O)C2(CCC2)NC(=O)[C@@H]2CCCN2C(=O)[C@H](CCc2ccc(C(F)(F)F)c(Cl)c2)NC(=O)CN(C)C(=O)[C@@H]1Cc1ccc(C(F)(F)F)cc1 [PP0412] ([NMeL]I[Sar][Sar][NPrPhe(4-CF3)][Sar][hPhe(3-Cl-4-CF3)]P[Ac4c][NMeGly(cPent)][NMeD]-NMe2; lactam N-11),1.8,B (a compound having 3 or more and less than 10 is denoted as B),C (A compound having a KD ratio of 0.1 or more and less than 3 is denoted as C)
"CCCN1C(=O)CN(C)C(=O)CN(C)C(=O)[C@H]([C@@H](C)CC)NC(=O)[C@H](CC(C)C)N(C)C(=O)C[C@@H](C(=O)N(C)C)N(C)C(=O)[C@H](C2CCCC2)N(C)C(=O)C2(CCCC2)NC(=O)[C@@H]2CC(F)(F)CN2C(=O)[C@H](CCc2ccc(C(F)(F)F)c(Cl)c2)NC(=O)CN(C)C(=O)[C@@H]1Cc1ccc(C(F)(F)F)cc1 [PP0413] ([NMeL]I[Sar][Sar][NPrPhe(4-CF3)][Sar][hPhe(3-Cl-4-CF3)][Pro(4,4-F2)][Ac5c][NMeGly(cPent)][NMeD]-NMe2; lactam N-11)",2,C (A compound having a KD ratio of 0.1 or more and less than 3 is denoted as C),C (A compound having a KD ratio of 0.1 or more and less than 3 is denoted as C)
"CCCN1C(=O)CN(C)C(=O)CN(C)C(=O)[C@H]([C@@H](C)CC)NC(=O)[C@H](CC(C)C)N(C)C(=O)C[C@@H](C(=O)N(C)C)N(C)C(=O)[C@H](C2CCCC2)N(C)C(=O)C2(CCC2)NC(=O)[C@@H]2CC(F)(F)CN2C(=O)[C@H](CCc2ccc(C(F)(F)F)c(Cl)c2)NC(=O)CN(C)C(=O)[C@@H]1Cc1ccc(C(F)(F)F)cc1 [PP0414] ([NMeL]I[Sar][Sar][NPrPhe(4-CF3)][Sar][hPhe(3-Cl-4-CF3)][Pro(4,4-F2)][Ac4c][NMeGly(cPent)][NMeD]-NMe2; lactam N-11)",1.9,B (a compound having 3 or more and less than 10 is denoted as B),C (A compound having a KD ratio of 0.1 or more and less than 3 is denoted as C)
